One substance from patent US11701382B2, “Treatment of post-operative joint pain with polysulfated polysaccharides” (PARADIGM BIOPHARMACEUTICALS LTD., priority 2018, dated 2023) can be followed below.

Common to all, as to format: in vivo, human
Data set [1] relates to patient with left knee osteoarthritis and persistent right knee pain following TKR. The data set can be described thus: Safety and tolerability (adverse events) of PPS under TGA SAS(B). Particulars: PPS 2 mg/kg SC twice weekly for 3 weeks, one patient. On the procedure:
(§1) Example 1 is a study of the safety, tolerability and result of a patient treated with PPS suffering from degenerative osteoarthritis in the left knee with bone marrow edema lesions (BMEL), as assessed by magnetic resonance imaging (MRI), and from persistent pain following total right knee arthroplasty.
The patient was treated with PPS under the TGA Special Access Scheme (B). (Approval to use PPS as treatment for the patient was acquired from Department of Health—Therapeutic Goods Administration, Australian Government under the Special Access Scheme (SAS) since the injectable form of PPS was not a registered product in Australia.)
(§2) They were treated with PPS. The treatment regimen consisted of administration of PPS, at a preferred dose of 2 mg/kg of body weight, twice weekly for three weeks by subcutaneous injection (total of six injections).

For data set [2], the system named is patient with degenerative osteoarthritis in the left knee. In words: Lysholm Knee Score (knee function), left knee, patient treated with PPS. Particulars: left knee (degenerative OA); PPS 2 mg/kg SC twice weekly for 3 weeks; 0-100 scale; before PPS 58.
Excerpt: as §1
(§3) The patient had end stage osteroarthrtis (OA) in their right knee. They underwent a total knee replacement (TKR) in the right knee and had aseptic, persistent pain from that joint post replacement. They also had pain in their left knee (degenerative osteoarthritis) and was recommended to have a TKR in that joint.
as §2
(§4) The protocol featured the following: • Treatment regimen: 2× weekly subcutaneous injections of PPS (preferred dose 2 mg/kg) for 3 weeks (total of 6 injections)
Lysholm Knee Score is a total score of 0-100 is calculated based on the results from the eight functional components of the Lysholm knee score scale: Limp (5 points), Support (5 points), Locking (15 points), Instability (25 points), Pain (25 points), Swelling (10 points), Stair climbing (10 points), and Squatting (5 points). […]

In data set [3] the test system is patient with degenerative osteoarthritis in the left knee with bone marrow edema lesions. The data set can be described thus: Bone marrow edema lesions (BMEL) assessed by MRI, left knee, patient treated with PPS.
Excerpt: as §1, §3, §2, §4

Data set [4] concerns patient with persistent pain following total right knee arthroplasty. The data set can be described thus: Aseptic, persistent post-operative pain in right artificial knee joint after total knee replacement, patient treated with PPS. Particulars: PPS 2 mg/kg SC twice weekly for 3 weeks.
Excerpt: as §1, §3, §2, §4

Data set [5] has as its system patient with degenerative osteoarthritis in the left knee. The data set can be described thus: Numerical Rating Scale (NRS) pain score, left knee with degenerative osteoarthritis, patient treated with PPS. To be noted: left knee (degenerative OA); PPS 2 mg/kg SC twice weekly for 3 weeks (6 injections); 0-10 scale; before PPS 8.
Excerpt: as §1, §3, §2, §4
Numerical Rating Scale (NRS) is an 11-point scale (0-10). A state of no pain is 0 and the worst pain imaginable is 10.

For Pentosan polysulfate [PPS], the adverse events result in data set [1] was “no adverse events were reported”. Besides, in data set [2], the “After PPS/Lysholm Knee Score” value came to 99. For the same substance, the “BMEL reduction as assessed by magnetic resonance imaging” value in data set [3] (PPS 2 mg/kg SC twice weekly for 3 weeks) is given as “clearly visible BMEL reduction”. Moreover, the “bone marrow edema stage, post-treatment MRI” value in data set [3] (after PPS, at baseline up to two thirds) is “negligible”. Besides, in data set [4], the “aseptic, persistent pain in the right artificial joint” value is “zero”. Besides, in data set [5], the “After PPS/NRS Pain” value is listed as 0.
